Reference: US8883449B2, “Single-chain insulin” (Novo Nordisk A/S, priority 2003, dated 2014)
Where two headings read alike, the source gives them in different places. Bridges are numbered along the chain shown (N, C = ends). Where no end group is shown, it is not given here.

Target: human insulin receptor (Homo sapiens, UniProt P06213)
Type: binding
Experimental: Alternatively the insulin receptor binding was tested in a hIRBHK membrane assay as follows: • Binding of [^125I]-human insulin to membrane-associated recombinant human insulin receptor isoform A (hIR-A) • Reagents: • ^125I-Insulin: Novo Nordisk A/S, mono ^125I-(TyrA14) human insulin • Human Insulin: Novo Nordisk A/S, • Human serum albumin: Dade Behring, ORHA 194 C30, lot 455077 • Plastic ware: Packard OptiPlate™-96, #6,005,290 • Scintillant: Amersham Biosciences, WGA coated PVT microspheres, # RPNQ0001 • Cells: BHK tk^− ts13 cells expressing recombinant human insulin receptor isoform A (hIR12-14).
Extraction of membrane-associated insulin receptors: BHK cells from a ten-layer cell factory were harvested and homogenised in 25 ml of ice-cold buffer (25 mM HEPES pH 7.4, 2.5 mM CaCl2, 1 mM MgCl2, 250 mg/l bacitracin, 0.1 mM Pefablock). The homogenate was layered carefully on 41% sucrose cushions, centrifuged in the ultracentrifuge at 95,000×g for 75 minutes in a Beckman SW28 rotor at 4° C. The plasma membranes were collected from the top of the sucrose cushion, diluted 1:4 with buffer and centrifuged at 40,000×g for 45 min in a Beckman SW28 rotor. The pellets were suspended in buffer (25 mM HEPES pH 7.4, 2.5 mM CaCl2, 1 mM MgCl2, 250 mg/l bacitracin, 0.1 mM Pefablock) and stored at −80° C.
Radioligand binding to membrane-associated insulin receptors was performed in duplicate in 96-well OptiPlates. Membrane protein was incubated for 150 minutes at 25° C. with […] [^125I-Tyr^A14]-human insulin in a total volume of […] assay buffer (50 mM HEPES, 150 mM NaCl, 5 mM MgSO4, 0.01% Triton X-100, 0.1% HSA, Complete™ EDTA-free protease inhibitors) and increasing concentrations of human insulin or insulin analogues (typically between 0.01 and 300 nM). The assay was terminated by addition of 50 μl of a suspension of WGA-coated PVT microspheres (20 mg/ml). Following 5 minutes of slight agitation, the plate was centrifuged at 1500 RPM for 6 minutes, and bound radioactivity quantified by counting in a Packard TopCount NXT after a delay of 60 minutes. […]

[1] = acylated single-chain insulins of Examples 2-4

Sequence of human insulin receptor (P06213 28-746 isoform P06213-2 limits assumed): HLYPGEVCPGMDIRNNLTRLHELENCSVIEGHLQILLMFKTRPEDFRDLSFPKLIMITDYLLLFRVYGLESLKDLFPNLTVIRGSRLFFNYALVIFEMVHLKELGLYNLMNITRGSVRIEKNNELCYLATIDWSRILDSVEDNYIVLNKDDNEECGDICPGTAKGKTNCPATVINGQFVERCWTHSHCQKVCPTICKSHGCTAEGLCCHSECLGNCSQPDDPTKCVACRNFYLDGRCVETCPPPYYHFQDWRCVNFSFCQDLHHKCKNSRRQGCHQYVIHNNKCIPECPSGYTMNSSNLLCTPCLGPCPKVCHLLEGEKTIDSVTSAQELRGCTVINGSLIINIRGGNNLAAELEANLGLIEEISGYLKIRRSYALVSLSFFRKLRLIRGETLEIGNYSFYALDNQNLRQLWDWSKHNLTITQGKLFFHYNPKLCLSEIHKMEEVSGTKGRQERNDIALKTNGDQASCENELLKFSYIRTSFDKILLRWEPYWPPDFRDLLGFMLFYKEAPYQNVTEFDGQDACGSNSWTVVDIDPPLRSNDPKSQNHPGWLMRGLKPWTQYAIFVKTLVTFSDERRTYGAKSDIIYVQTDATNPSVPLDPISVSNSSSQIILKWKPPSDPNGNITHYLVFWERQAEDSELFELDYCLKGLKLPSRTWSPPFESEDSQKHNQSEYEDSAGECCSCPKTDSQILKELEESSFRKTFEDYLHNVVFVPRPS
Sequence of human insulin receptor (P06213 763-1382 partner limits assumed): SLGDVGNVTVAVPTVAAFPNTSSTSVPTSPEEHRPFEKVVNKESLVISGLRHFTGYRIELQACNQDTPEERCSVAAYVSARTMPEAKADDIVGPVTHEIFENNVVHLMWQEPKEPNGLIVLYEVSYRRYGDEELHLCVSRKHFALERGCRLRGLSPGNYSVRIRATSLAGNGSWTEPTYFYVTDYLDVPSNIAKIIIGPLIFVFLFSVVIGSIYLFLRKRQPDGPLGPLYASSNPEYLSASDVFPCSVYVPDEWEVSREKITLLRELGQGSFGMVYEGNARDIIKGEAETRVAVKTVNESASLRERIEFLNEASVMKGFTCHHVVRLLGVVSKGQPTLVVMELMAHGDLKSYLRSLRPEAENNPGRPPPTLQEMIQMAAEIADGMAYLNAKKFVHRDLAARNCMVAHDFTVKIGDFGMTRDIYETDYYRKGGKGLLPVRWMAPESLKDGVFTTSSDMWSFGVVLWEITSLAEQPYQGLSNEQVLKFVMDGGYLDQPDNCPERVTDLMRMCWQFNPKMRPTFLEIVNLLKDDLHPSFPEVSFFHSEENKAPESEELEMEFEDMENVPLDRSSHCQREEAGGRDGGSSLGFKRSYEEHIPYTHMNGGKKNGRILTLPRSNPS

Molecule | IC50 relative to human insulin in %. [1] [%] | IC50 relative to human insulin in %. [%]
B(1-29)-B3Q-B29R-TGLGK((eps)octadecandioyl)GQ-A(1-21)-A18Q-A21G Human insulin (FVQQHLCGSHLVEALYLVCGERGFFYTPRTGLGK(octadecandioyl)GQGIVEQCCTSICSLYQLEQYCG; disulfide 19-56, 42-47, 7-43) [Example 3] | 0.1 | –
B(1-29)-B3Q-B29R-TGLGK((eps)hexadecandioyl-γ-L-Glu)GQ-A(1-21)-A 8Q-A21 G Human insulin [Example 4] | 0.7 | –
CCCCCCCCCCCCCC(=O)NCCCC[C@@H]1NC(=O)CNC(=O)[C@H](CC(C)C)NC(=O)CNC(=O)[C@H]([C@@H](C)O)NC(=O)[C@H](CCCNC(=N)N)NC(=O)[C@@H]2CCCN2C(=O)[C@H]([C@@H](C)O)NC(=O)[C@H](Cc2ccc(O)cc2)NC(=O)[C@H](Cc2ccccc2)NC(=O)[C@H](Cc2ccccc2)NC(=O)CNC(=O)[C@H](CCCNC(=N)N)NC(=O)[C@H](CCC(=O)O)NC(=O)CNC(=O)[C@@H]2CSSC[C@@H](C(=O)NCC(=O)O)NC(=O)[C@H](Cc3ccc(O)cc3)NC(=O)[C@H](CCC(N)=O)NC(=O)[C@H](CCC(=O)O)NC(=O)[C@H](CC(C)C)NC(=O)[C@H](CCC(N)=O)NC(=O)[C@H](Cc3ccc(O)cc3)NC(=O)[C@H](CC(C)C)NC(=O)[C@H](CO)NC(=O)[C@@H]3CSSC[C@H](NC(=O)[C@H](CCC(N)=O)NC(=O)[C@H](CCC(=O)O)NC(=O)[C@H](C(C)C)NC(=O)[C@H]([C@@H](C)CC)NC(=O)CNC(=O)[C@H](CCC(N)=O)NC(=O)CNC1=O)C(=O)N[C@@H](CSSC[C@H](NC(=O)[C@H](CC(C)C)NC(=O)[C@H](Cc1c[nH]cn1)NC(=O)[C@H](CCC(N)=O)NC(=O)[C@H](CCC(N)=O)NC(=O)[C@@H](NC(=O)[C@@H](N)Cc1ccccc1)C(C)C)C(=O)NCC(=O)N[C@@H](CO)C(=O)N[C@@H](Cc1c[nH]cn1)C(=O)N[C@@H](CC(C)C)C(=O)N[C@@H](C(C)C)C(=O)N[C@@H](CCC(=O)O)C(=O)N[C@@H](C)C(=O)N[C@@H](CC(C)C)C(=O)N[C@@H](Cc1ccc(O)cc1)C(=O)N[C@@H](CC(C)C)C(=O)N[C@@H](C(C)C)C(=O)N2)C(=O)N[C@@H]([C@@H](C)O)C(=O)N[C@@H](CO)C(=O)N[C@@H]([C@@H](C)CC)C(=O)N3 [Example 2, B(1-29)-B3Q-B29R-TGLGK((eps)myristoyl)GQ-A(1-21)-A18Q-A21G Human insulin] | – | 2
